US7700637B2, “Organic compounds” (Novartis AG, priority 2003, dated 2010)

Experiments:
[1] = molecular target: T1, PPARα receptor (GST-hPPARα LBD) (Homo sapiens, UniProt Q07869); test: PPARα receptor functional binding assay (CARLA, TR-FRET); assay type: biochemical; conditions: SRC-1 peptide recruitment
T1 construct: made in house; host or cells: E. coli BL21 (DE3)
T1 sequence (Q07869 167-468): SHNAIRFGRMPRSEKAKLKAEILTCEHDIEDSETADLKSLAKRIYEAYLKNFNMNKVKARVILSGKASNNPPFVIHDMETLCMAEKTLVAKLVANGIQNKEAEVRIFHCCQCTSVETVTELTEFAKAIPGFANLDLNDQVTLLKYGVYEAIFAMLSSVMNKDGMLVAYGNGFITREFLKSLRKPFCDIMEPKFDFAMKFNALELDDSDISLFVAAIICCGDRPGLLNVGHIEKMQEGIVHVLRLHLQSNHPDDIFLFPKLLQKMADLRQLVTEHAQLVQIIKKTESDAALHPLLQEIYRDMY
Protocol: (§1) The in vitro functional binding to the PPARα, PPARδ and PPARγ receptors is determined as follows:
(§2) The functional binding assays for the PPARα, PPARδ and PPARγ receptors are a variation of the coactivator-dependent receptor ligand assay (CARLA) (Krey et al., Molecular Endocrinology 1997, 11, 779-791). The present CARLA assays use a TR-FRET detection method previously reviewed (Hemmila, J. Biomol. Screening 1999, 4, 303-307; Mathis, J. Biomol. Screening 1999, 4, 309-313). All assays included 3 nM of the glutathione-S-transferase (GST) fusion proteins of either the hPPARα ligand binding domain (LBD) (amino acids 167-468) (GST-hPPARα LBD), GST-hPPARδ LBD (amino acids 139-442) or GST-hPPARγ LBD (amino acids 175-476); 3 nM Eu-labelled anti-GST antibody (Wallac); 30 nM biotinylated steroid receptor coactivator-1 (SRC-1) peptide (an N-terminal biotinylated peptide, […], derived from amino acids 676-700 of SRC-1); and 10 nM streptavidin-labelled allophycocyanin (APC; Prozyme). […] This brings the Eu-labelled anti-GST antibody and the strepavidin-labelled APC in close proximity, thereby facilitating fluorescence energy transfer. […] After mixing all components, the reaction mixture stands for 3 h at RT before reading the TR-FRET signal on a Wallac Victor 2 plate reader (measuring the ratio of signals at 665 nm and 620 nm). […]

[2] = molecular target: T2, PPARγ receptor (GST-hPPARγ LBD) (Homo sapiens, UniProt P37231); test: PPARγ receptor functional binding assay (CARLA, TR-FRET); assay type: biochemical; conditions: SRC-1 peptide recruitment
T2 construct: GST-hPPARγ LBD (amino acids 175-476); made in house; host or cells: E. coli BL21 (DE3)
T2 sequence (P37231 175-476 isoform P37231-2): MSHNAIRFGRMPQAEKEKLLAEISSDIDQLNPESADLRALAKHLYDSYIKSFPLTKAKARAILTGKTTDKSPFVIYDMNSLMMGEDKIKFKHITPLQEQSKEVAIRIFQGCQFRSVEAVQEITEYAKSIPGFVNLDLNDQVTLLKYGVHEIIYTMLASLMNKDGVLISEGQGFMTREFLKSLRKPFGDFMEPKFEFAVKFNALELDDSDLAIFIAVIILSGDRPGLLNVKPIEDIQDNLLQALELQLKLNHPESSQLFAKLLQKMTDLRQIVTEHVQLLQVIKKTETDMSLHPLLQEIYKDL
Protocol: as §1, §2

[3] = molecular target: T3, PPARδ receptor (GST-hPPARδ LBD) (Homo sapiens, UniProt Q03181); test: PPARδ receptor functional binding assay (CARLA, TR-FRET); assay type: biochemical; conditions: SRC-1 peptide recruitment
T3 construct: GST-hPPARδ LBD (amino acids 139-442); made in house; host or cells: E. coli BL21 (DE3)
T3 sequence (Q03181 139-441 limits assumed): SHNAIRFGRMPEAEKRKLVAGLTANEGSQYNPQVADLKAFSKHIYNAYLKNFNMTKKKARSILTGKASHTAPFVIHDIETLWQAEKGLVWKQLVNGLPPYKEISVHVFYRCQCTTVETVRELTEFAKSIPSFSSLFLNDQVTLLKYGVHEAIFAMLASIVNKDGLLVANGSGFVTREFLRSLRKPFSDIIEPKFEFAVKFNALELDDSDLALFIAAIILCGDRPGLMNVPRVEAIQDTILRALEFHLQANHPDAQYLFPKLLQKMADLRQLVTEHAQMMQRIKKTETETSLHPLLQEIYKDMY
T3 sequence (Q15788 676-700 partner limits assumed): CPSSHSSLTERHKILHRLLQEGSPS
Protocol: as §1, §2

C57BL ob/ob mice = test: glucose and insulin lowering activity in vivo in ob/ob mice; conditions: daily dose of about 30 mg/kg p.o. in the ob/ob mice
Protocol: The glucose and insulin lowering activity in vivo can be evaluated as follows:
Adult male C57BL ob/ob mice (Jackson Lab, Bar Harbor, Me.) at the age of 11 weeks are housed six per cage in a reversed light cycle room (light on from 6:00 p.m. to 6:00 a.m.) and given access to Purina rodent chow and water ad libitum. On day 1 tail blood samples are taken at 8:00 am and plasma glucose levels are determined. The animals are randomly assigned to the control and compound groups. The means of plasma glucose values of the groups were matched. Animals are then orally dosed with vehicle (0.5% carboxymethyl-cellulose with 0.2% Tween-80) or compounds (at 30 mg/kg) in vehicle. The mice are dosed daily for a total of 3 days. On day 4 basal blood samples are taken. The plasma samples are analyzed for glucose concentrations using a YS12700 Dual Channel Biochemistry Analyzer (Yellow Springs Instrument Co., Yellow Springs, Ohio) and insulin concentrations using an ELISA assay.

## Cc1oc(-c2ccccc2)nc1COc1ccc(S(=O)(=O)Nc2cc(F)ccc2C(=O)O)cc1 [Compd 4-10, 4-Fluoro-2-[4-(5-methyl-2-phenyl-oxazol-4-ylmethoxy)-benzenesulfonylamino]-benzoic acid]
other
  melting point: 212 to 214 °C

## Cc1oc(-c2ccccc2)nc1CCOc1ccc(S(=O)(=O)Nc2cc(-c3ccccc3)ccc2C(=O)O)cc1 [Compd 4-19, 3-{4-[2-(5-Methyl-2-phenyl-oxazol-4-yl)-ethoxy]-benzenesulfonylamino}-biphenyl-4-carboxylic acid]
other
  melting point: 177 to 179 °C

## Cc1cccc(NS(=O)(=O)c2ccc(OCc3nc(-c4ccccc4)oc3C)cc2)c1C(=O)O [Example 1, 2-Methyl-6-[4-(5-methyl-2-phenyl-oxazol-4-ylmethoxy)-benzenesulfonylamino]-benzoic acid]
[1]
  EC50: ~8 nM
[2]
  EC50: ~5 nM
[3]
  EC50: ~3500 nM
C57BL ob/ob mice
  serum glucose levels: significantly lowers
  serum insulin levels: significantly lowers
other
  melting point: 167 to 170 °C

## Cc1oc(-c2ccccc2)nc1COCc1cccc(COc2cc(Cl)ccc2C(=O)O)c1 [Example 18, 4-Chloro-2-[3-(5-methyl-2-phenyl-oxazol-4-ylmethoxymethyl)-benzyloxy]-benzoic acid]
other
  melting point: 137 °C

## COc1cc(OC)c(C(=O)O)c(OCc2ccc(OCCc3nc(-c4ccccc4)oc3C)cc2)c1 [Compd 21-1, 2,4-Dimethoxy-6-{4-[2-(5-methyl-2-phenyl-oxazol-4-yl)-ethoxy]-benzyloxy}-benzoic acid]
other
  melting point: 58 to 60 °C

## CCCOc1ccc(C(=O)O)c(OCc2ccc(OCCc3nc(-c4ccccc4)oc3C)cc2)c1 [Example 15, 2-{4-[2-(5-Methyl-2-phenyl-oxazol-4-yl)-ethoxy]-benzyloxy}-4-propoxy-benzoic acid]
other
  melting point: 108 to 109 °C

## Cc1oc(-c2ccccc2)nc1COc1ccc(S(=O)(=O)Nc2ccccc2C(=O)O)cc1 [Compd 4-11, 2-[4-(5-Methyl-2-phenyl-oxazol-4-ylmethoxy)-benzenesulfonylamino]-benzoic acid]
other
  melting point: 195 to 198 °C

## COc1cc(NS(=O)(=O)c2ccc(OCc3nc(-c4ccccc4)oc3C)cc2)c(C(=O)O)cc1OC [Compd 4-24, 4,5-Dimethoxy-2-[4-(5-methyl-2-phenyl-oxazol-4-ylmethoxy)-benzenesulfonylamino]-benzoic acid]
other
  melting point: 206 to 207 °C

## COc1cccc(OCc2ccc(OCCc3nc(-c4ccccc4)oc3C)cc2)c1C(=O)O [Compd 21-10, 2-Methoxy-6-{4-[2-(5-methyl-2-phenyl-oxazolyl)-ethoxy]-benzyloxy}-benzoic acid]
other
  melting point: 183 to 184 °C

## Cc1oc(-c2ccccc2)nc1CCOc1ccc(COc2cc(C(F)(F)F)cc(C(F)(F)F)c2C(=O)O)cc1 [Compd 21-4, 2-{4-[2-(5-Methyl-2-phenyl-oxazol-4-yl)-ethoxy]-benzyloxy}-4,6-bis-trifluoromethyl-benzoic acid]
other
  melting point: 162 to 163 °C

## CC(=O)Nc1ccc(NS(=O)(=O)c2ccc(OCc3nc(-c4ccccc4)oc3C)cc2)c(C(=O)O)c1 [Compd 4-18, 5-Acetylamino-2-[4-(5-methyl-2-phenyl-oxazol-4-ylmethoxy)-benzenesulfonylamino]-benzoic acid]
other
  melting point: 89 to 90 °C

## Cc1oc(-c2ccccc2)nc1COc1ccc(COc2cccc(F)c2C(=O)O)cc1 [Compd 21-6, 2-Fluoro-6-[4-(5-methyl-2-phenyl-oxazol-4-ylmethoxy)-benzyloxy]-benzoic acid]
other
  melting point: 167 to 168 °C

## Cc1oc(-c2ccccc2)nc1CSc1ccc(S(=O)(=O)Nc2ccccc2C(=O)O)cc1 [Example 3, 2-[4-(5-Methyl-2-phenyl-oxazol-4-ylmethylsulfanyl)-benzenesulfonylamino]-benzoic acid]
other
  melting point: 182 to 184 °C

## Cc1oc(-c2ccccc2)nc1COc1ccc(S(=O)(=O)Nc2cc3ccccc3cc2C(=O)O)cc1 [Compd 4-26, 3-[4-(5-Methyl-2-phenyl-oxazol-4-ylmethoxy)-benzenesulfonylamino]-naphthalene-2-carboxylic acid]
other
  melting point: 234 to 236 °C

## Cc1ccc(NS(=O)(=O)c2ccc(OCc3nc(-c4ccccc4)oc3C)cc2)c(C(=O)O)c1 [Compd 4-17, 5-Methyl-2-[4-(5-methyl-2-phenyl-oxazol-4-ylmethoxy)-benzenesulfonylamino]-benzoic acid]
other
  melting point: 185 to 187 °C

## Cc1ccc(C(=O)O)c(NS(=O)(=O)c2ccc(OCc3nc(-c4ccccc4)oc3C)cc2)c1 [Compd 4-12, 4-Methyl-2-[4-(5-methyl-2-phenyl-oxazol-4-ylmethoxy)-benzenesulfonylamino]-benzoic acid]
other
  melting point: 207 to 208 °C

## Cc1oc(-c2ccccc2)nc1COc1cccc(COc2cc(Cl)ccc2C(=O)O)c1 [Example 17, 4-Chloro-2-[3-(5-methyl-2-phenyl-oxazol-4-ylmethoxy)-benzyloxy]-benzoic acid]
other
  melting point: 168 °C

## Cc1oc(-c2ccccc2)nc1COc1ccc(COc2cc(C(F)(F)F)cc(C(F)(F)F)c2C(=O)O)cc1 [Compd 21-5, 2-[4-(5-Methyl-2-phenyl-oxazol-4-ylmethoxy)-benzyloxy]-4,6-bis-trifluoromethyl-benzoic acid]
other
  melting point: 190 to 191 °C

## Cc1oc(-c2ccccc2)nc1COc1ccc(S(=O)(=O)Nc2ccc(Cl)cc2C(=O)O)cc1 [Compd 4-15, 5-Chloro-2-[4-(5-methyl-2-phenyl-oxazol-4-ylmethoxy)-benzenesulfonylamino]-benzoic acid]
other
  melting point: 207 to 208 °C

## Cc1oc(-c2ccccc2)nc1COc1ccc(S(=O)(=O)Nc2cccc(C(F)(F)F)c2C(=O)O)cc1 [Compd 4-6, 2-[4-(5-Methyl-2-phenyl-oxazol-4-ylmethoxy)-benzenesulfonylamino]-6-trifluoromethyl-benzoic acid]
other
  melting point: 197 to 198 °C
